Test [1] concerns the target T1, zfT1R2b/zfT1R3 (Danio rerio, UniProt A0A8M1NDZ5+Q2MHK9).
T1 sequence (A0A8M1NDZ5 18-823): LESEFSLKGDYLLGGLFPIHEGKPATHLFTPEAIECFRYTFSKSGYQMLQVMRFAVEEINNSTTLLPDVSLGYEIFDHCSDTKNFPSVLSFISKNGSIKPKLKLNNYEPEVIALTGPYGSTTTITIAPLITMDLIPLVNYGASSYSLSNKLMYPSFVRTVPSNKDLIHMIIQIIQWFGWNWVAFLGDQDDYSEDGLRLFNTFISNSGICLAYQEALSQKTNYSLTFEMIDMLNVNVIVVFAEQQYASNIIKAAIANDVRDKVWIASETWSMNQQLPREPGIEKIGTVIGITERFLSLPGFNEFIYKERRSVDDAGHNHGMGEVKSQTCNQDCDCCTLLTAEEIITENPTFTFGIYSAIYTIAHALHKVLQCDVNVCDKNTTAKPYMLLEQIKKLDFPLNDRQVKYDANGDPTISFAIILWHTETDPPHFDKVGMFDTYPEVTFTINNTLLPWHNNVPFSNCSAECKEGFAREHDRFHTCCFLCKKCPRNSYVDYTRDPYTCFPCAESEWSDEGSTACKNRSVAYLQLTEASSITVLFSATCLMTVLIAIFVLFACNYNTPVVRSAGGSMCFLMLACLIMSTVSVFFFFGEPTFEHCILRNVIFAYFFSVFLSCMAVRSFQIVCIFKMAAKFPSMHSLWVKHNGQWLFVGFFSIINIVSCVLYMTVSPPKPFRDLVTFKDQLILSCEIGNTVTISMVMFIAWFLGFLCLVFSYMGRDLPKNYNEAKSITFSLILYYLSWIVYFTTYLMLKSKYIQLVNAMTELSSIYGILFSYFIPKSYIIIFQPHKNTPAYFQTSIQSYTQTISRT
T1 sequence (Q2MHK9 25-850): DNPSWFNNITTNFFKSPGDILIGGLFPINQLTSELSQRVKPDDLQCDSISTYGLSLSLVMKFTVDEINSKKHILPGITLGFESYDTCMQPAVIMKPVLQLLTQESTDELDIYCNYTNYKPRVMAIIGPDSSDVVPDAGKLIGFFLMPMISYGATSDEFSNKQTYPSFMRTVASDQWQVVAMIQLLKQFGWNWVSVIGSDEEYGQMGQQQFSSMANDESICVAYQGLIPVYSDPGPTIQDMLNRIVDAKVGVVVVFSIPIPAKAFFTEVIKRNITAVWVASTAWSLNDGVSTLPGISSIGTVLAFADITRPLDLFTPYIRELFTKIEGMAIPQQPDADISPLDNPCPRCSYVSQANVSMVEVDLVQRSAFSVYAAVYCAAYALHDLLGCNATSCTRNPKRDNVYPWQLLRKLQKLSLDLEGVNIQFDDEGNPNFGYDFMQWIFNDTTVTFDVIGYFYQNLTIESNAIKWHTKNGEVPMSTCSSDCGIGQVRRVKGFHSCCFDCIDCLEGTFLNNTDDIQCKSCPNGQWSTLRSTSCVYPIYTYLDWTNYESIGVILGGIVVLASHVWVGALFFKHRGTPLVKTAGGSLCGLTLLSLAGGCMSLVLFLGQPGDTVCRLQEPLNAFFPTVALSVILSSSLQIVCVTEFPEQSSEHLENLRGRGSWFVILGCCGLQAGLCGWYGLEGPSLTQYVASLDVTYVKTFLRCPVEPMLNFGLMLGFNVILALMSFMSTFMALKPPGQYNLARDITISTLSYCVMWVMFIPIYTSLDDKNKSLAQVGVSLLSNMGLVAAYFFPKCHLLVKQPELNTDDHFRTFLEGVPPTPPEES
The experiment in a line: cell-based.
Method: (§1) The buffers with lower Cl^− were prepared by progressively replacing NaCl, KCl, CaCl2 and MgCl2 in the buffer with gluconate equivalents[20]. The pH was adjusted to 7.4 with NaOH. Ligands were diluted with the assay buffers at the desired concentrations.
(§2) Measurements of the responses of the cells by cell-based assay based on the intracellular Ca^2+ mobilization were carried out as described previously with some modifications[20],[34],[46],[47]. […] The cells were seeded in 96-well plates (clear-bottomed CellBIND surface plate, Corning, Glendale, AZ, USA) coated with ε-poly-L-lysine (Cosmo Bio, Tokyo, Japan) at approximately 70,000 cells per well. After 20 h, the medium was removed and replaced with high Cl^− buffer. After 3 h 30 min incubation at 27 °C, cells were loaded with 5 µM calcium-indicator dye Fluo-8 AM (AAT Bioquest, Sunnyvale, CA, USA) diluted in high Cl^− buffer. After incubation for 30 min at 27 °C, the cells were washed with buffers containing appropriate concentrations of Cl^−. The cellular assay was initiated after 3–5 min of resting and was completed within 5 min. The measurements were made using FlexStation 3 (Molecular Devices, Sunnyvale, CA, USA) at 27 °C. Fluorescence changes (i.e., excitation at 485 nm and emission at 525 nm with a cutoff at 515 nm) were monitored at 2 s intervals. A 100-µL aliquot of assay buffer supplemented with 2 × ligands was added at 20 s, and scanning was continued for an additional 40 s. The response of each well was determined as ∆RFU (delta relative fluorescent units), which was calculated as (maximum fluorescent value)—(minimum fluorescent value). […] Such normalized data from more than three independent experiments are reported as the mean ± standard error of the mean (SEM). Dose‒response fitting curves were calculated by Prism 9 (GraphPad Software, San Diego, CA) using nonlinear regression (log(agonist) vs. response—variable slope), based on the integrated data from the several independent experiments.

The target of test [2] is T1, zfT1R2b/zfT1R3. As to the kind of experiment: Ca2+ mobilization dose-response assay, stable cells expressing zfT1R2b/zfT1R3 with G16gust44. (In general: Calcium assays in cells follow changes in intracellular calcium, usually with a dye or a luminescent sensor.)
Method: as §1, §2
In another test the target is T2, zfT1R2a/zfT1R3 (Danio rerio, UniProt A0A8M1N8F9+Q2MHK9).
T2 sequence (A0A8M1N8F9 26-825): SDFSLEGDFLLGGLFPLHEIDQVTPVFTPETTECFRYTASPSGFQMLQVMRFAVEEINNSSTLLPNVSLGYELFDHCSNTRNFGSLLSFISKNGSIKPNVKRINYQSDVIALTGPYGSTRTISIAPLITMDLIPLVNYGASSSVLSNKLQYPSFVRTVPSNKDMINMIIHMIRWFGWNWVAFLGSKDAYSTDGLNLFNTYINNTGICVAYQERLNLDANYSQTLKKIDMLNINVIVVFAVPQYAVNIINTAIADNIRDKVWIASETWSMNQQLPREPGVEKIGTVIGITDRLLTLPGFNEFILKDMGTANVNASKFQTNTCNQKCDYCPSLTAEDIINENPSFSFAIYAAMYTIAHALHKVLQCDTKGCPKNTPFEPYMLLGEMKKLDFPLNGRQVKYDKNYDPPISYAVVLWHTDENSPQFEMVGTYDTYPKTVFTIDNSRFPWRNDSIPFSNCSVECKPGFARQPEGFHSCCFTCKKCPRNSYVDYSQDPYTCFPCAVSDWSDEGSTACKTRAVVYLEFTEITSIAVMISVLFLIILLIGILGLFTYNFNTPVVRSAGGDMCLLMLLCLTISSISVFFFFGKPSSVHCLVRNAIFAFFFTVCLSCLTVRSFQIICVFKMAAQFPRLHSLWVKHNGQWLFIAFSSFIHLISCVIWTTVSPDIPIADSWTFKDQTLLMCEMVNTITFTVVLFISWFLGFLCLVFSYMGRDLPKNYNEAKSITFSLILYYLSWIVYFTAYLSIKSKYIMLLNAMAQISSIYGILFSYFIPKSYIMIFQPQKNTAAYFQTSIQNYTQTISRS
T2 sequence (Q2MHK9 25-850): T1 sequence (Q2MHK9 25-850)
The experiment in a line: Ca2+ mobilization dose-response assay, stable cells expressing zfT1R2a/zfT1R3 with G16gust44.

For another test, the system named is mfT1R2b/mfT1R3. As to the kind of experiment: Ca2+ mobilization dose-response assay, stable cells expressing mfT1R2b/mfT1R3 with G16gust44. Particulars: 10 mM vs 141.4 mM Cl- buffer.
Test [3] has as its target T1, zfT1R2b/zfT1R3. As to the kind of experiment: Effect of anions, cations and osmotic pressure on cellular responses, cells in 10 mM Cl- buffer, zfT1R2b/zfT1R3. Type of test: cell-based, zebrafish. The settings on record: coapplied with 2 mM L-Ala, increasing salt concentration. The procedure: Cells were seeded in 96-well plates coated with ε-poly-L-lysine at approximately 70,000 cells per well. […] Fluorescence changes were monitored at 2 s intervals, as described above. […] Three independent experiments were conducted for each receptor, and representative results are shown as the mean ± SEM (n = 3 replicates). Statistical tests were conducted using KyPlot version 6.0 (KyensLab Inc., Tokyo, Japan). Statistical significance was set at p < 0.05.

Setting [4] is: EC50, [Cl-]o=10 mM, unit inferred.

Two molecules from paper PMC10539361, “Allosteric modulation of the fish taste receptor type 1 (T1R) family by the extracellular chloride ion” (Scientific Reports, 2023) can be followed below.

pEC50: −log10 of the molar value.

Method for mfT1R2b/mfT1R3: as §1
Measurements of the responses of the cells by cell-based assay based on the intracellular Ca^2+ mobilization were carried out as described previously with some modifications[20],[34],[46],[47]. […] The cells were seeded in 96-well plates (clear-bottomed CellBIND surface plate, Corning, Glendale, AZ, USA) coated with ε-poly-L-lysine (Cosmo Bio, Tokyo, Japan) at approximately 70,000 cells per well. After 20 h, the medium was removed and replaced with high Cl^− buffer. […] Fluorescence changes (i.e., excitation at 485 nm and emission at 525 nm with a cutoff at 515 nm) were monitored at 2 s intervals. […] The response of each well was determined as ∆RFU (delta relative fluorescent units), which was calculated as (maximum fluorescent value)—(minimum fluorescent value). […] Dose‒response fitting curves were calculated by Prism 9 (GraphPad Software, San Diego, CA) using nonlinear regression (log(agonist) vs. response—variable slope), based on the integrated data from the several independent experiments.
Method for zfT1R2a/zfT1R3: as §1, §2

Regarding `C[C@H](N)C(=O)O` [L-Ala, L-alanine], the results for the pEC50 at zfT1R2b/zfT1R3 [1], at zfT1R2b/zfT1R3 [2] (setting [4]) and on zfT1R2a/zfT1R3 (setting [4]) were 2.54, 2.89 and 3.88, respectively. Further, the results for the “EC50 in 10 mM Cl- buffer relative to high Cl- buffer” value on zfT1R2b/zfT1R3 [2] (10 mM vs 141.4 mM Cl- buffer) and at zfT1R2a/zfT1R3 (10 mM vs 141.4 mM Cl- buffer) were “approximately half” and “not influenced”, respectively. For the same molecule, the “effect of anionic buffer composition on sensitivity” value in the test with mfT1R2b/mfT1R3 was “hardly affected”.

As for `[Cl-].[Na+]` [NaCl], the “response to fixed concentration of L-Ala on coapplication” value at zfT1R2b/zfT1R3 [3] is “decreased”. In addition, the “[Cl-]o range in which a decrease in sensitivity was observed” value at zfT1R2b/zfT1R3 [2] (agonist L-Ala, buffers with 10-141.4 mM Cl-) is given as 40 to 141.4 mM. Moreover, at zfT1R2a/zfT1R3 (agonist L-Pro, buffers with 10-141.4 mM Cl-), the “[Cl-]o at which sensitivity is clearly reduced” value is “below 80 mM”.
